Source: patent publication US20230265151A1, “GIP/GLP1 CO-AGONIST COMPOUNDS” (priority 2020, published 2023)
Read-outs that look alike come from different tables or passages of the source.

How the values were obtained:
Type in all cases: cell-based
hGCGR = target: T1, hGCGR (Homo sapiens, UniProt P47871); assay: Functional cAMP formation (HTRF) in HEK-293 clonal cells expressing hGCGR, 0.1% bovine casein, without or with 1.0% human serum albumin; conditions: geometric mean
T1 construct: expressed in transfected cells
Procedure, shortened: (§1)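 Cells were stimulated with peptide for 30 min at 37° C, then lysed in buffer carrying cAMP-d2 and anti-cAMP Eu3+-cryptate for a competitive HTRF read after at least 60 min at room temperature. The 665/620 nm ratio was converted to nM cAMP against a standard curve.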

hGIPR = target: T2, hGIPR (Homo sapiens, UniProt P48546); assay: Functional cAMP formation (HTRF) in HEK-293 clonal cells expressing hGIPR, 0.1% bovine casein, without or with 1.0% human serum albumin; conditions: for EC50: geometric mean
T2 construct: expressed in transfected cells
T2 sequence (P48546 22-466): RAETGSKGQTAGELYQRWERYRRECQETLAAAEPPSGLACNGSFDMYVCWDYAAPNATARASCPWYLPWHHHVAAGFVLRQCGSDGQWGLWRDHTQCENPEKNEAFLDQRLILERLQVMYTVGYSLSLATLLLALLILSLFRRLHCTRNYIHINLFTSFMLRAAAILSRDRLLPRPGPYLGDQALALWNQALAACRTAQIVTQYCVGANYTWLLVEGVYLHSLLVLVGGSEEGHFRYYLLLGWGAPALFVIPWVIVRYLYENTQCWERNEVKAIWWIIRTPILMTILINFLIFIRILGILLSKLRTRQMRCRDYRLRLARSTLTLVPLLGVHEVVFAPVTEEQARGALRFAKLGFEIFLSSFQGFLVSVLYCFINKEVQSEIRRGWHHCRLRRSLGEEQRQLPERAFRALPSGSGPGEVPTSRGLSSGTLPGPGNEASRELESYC
Procedure, shortened: as §1

hGLP-1R = hGLP-1R (Homo sapiens, UniProt P43220); assay: Functional cAMP formation (HTRF) in HEK-293 clonal cells expressing hGLP-1R, 0.1% bovine casein, without or with 1.0% human serum albumin; parameters: expressed in transfected cells; conditions: for EC50: geometric mean
Procedure, shortened: as §1

[1] = 0.1% bovine casein and 1.0% human serum albumin, 37° C., read-out: hGCGR EC50, nM (SEM, n)
[2] = cAMP, incubated at 37° C., 0.1% bovine casein (no human serum albumin), read-out: hGCGR EC50, nM (SEM, n)
[3] = 0.1% bovine casein and 1.0% human serum albumin, 37° C., read-out: hGIPR EC50, nM (SEM, n)
[4] = HEK293, 0.1% bovine casein and 1.0% human serum albumin, 37° C., percent of maximal response to GIP(1-42)NH2, read-out: hGIPR Emax, % ± SEM
[5] = 0.1% bovine casein and 1.0% human serum albumin, 37° C., read-out: hGLP-1R EC50, nM (SEM, n)
[6] = HEK293, percent of maximal response to GLP-1(7-36)NH2, 37° C., 0.1% bovine casein, arithmetic mean, read-out: hGLP-1R Emax, % ± SEM

Chain of hGLP-1R (P43220 24-463): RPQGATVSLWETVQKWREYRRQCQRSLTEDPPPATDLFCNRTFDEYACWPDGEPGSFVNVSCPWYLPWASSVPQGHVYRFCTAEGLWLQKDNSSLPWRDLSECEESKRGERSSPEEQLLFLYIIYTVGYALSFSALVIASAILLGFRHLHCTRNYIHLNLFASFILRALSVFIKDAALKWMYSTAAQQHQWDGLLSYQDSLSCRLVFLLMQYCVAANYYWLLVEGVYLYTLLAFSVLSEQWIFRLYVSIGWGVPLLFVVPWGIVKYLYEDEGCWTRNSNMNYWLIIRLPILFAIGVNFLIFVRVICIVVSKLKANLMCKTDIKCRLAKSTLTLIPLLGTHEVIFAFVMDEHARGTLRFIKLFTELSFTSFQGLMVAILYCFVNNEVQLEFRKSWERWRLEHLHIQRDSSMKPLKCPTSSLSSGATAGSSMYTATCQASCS
T1 sequence (P47871 26-477): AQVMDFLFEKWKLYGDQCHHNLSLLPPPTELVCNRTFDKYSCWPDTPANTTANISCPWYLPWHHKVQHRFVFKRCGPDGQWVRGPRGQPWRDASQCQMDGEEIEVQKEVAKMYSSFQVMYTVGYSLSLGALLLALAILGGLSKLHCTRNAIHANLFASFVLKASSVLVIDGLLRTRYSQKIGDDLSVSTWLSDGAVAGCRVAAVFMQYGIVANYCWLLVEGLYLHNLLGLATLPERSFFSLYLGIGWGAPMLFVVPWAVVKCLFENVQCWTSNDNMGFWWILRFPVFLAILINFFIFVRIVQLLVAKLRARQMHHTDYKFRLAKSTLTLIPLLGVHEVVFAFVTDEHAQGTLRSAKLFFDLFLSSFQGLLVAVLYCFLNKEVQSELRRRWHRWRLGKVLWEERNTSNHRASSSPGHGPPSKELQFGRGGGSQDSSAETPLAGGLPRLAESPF

CC[C@H](C)[C@H](NC(=O)[C@H](CC(C)C)NC(=O)[C@](C)(Cc1ccc(O)cc1)NC(=O)[C@@H](CCC(=O)O)NC(=O)[C@@H](NC(=O)[C@H](Cc1ccccc1)NC(=O)[C@H](CCC(=O)O)NC(=O)C(C)(C)NC(=O)[C@H](CCC(N)=O)NC(=O)[C@H](C)NC(=O)[C@H](CCCCNC(=O)COCCOCCNC(=O)CC[C@H](NC(=O)CCCCCCCCCCCCC(=O)O)C(=O)O)NC(=O)[C@H](CCCN)NC(=O)[C@H](CC(=O)O)NC(=O)[C@H](CC(C)C)NC(=O)[C@](C)(CC(C)C)NC(=O)[C@@H](NC(=O)[C@H](CO)NC(=O)[C@H](Cc1ccncc1)NC(=O)[C@H](CC(=O)O)NC(=O)[C@H](CO)NC(=O)[C@@H](NC(=O)[C@](C)(Cc1ccccc1F)NC(=O)[C@@H](NC(=O)CNC(=O)[C@H](CCC(=O)O)NC(=O)C(C)(C)NC(=O)[C@@H](N)Cc1ccc(O)cc1)[C@@H](C)O)[C@@H](C)O)[C@@H](C)CC)[C@@H](C)CC)C(=O)N[C@@H](CCC(=O)O)C(=O)NCC(=O)NCC(=O)N[C@@H](CCCCNC(=O)COCCOCCNC(=O)CC[C@H](NC(=O)CCCCCCCCCCCCC(=O)O)C(=O)O)C(=O)N[C@@H](CO)C(=O)N[C@@H](CO)C(=O)NCC(=O)N[C@@H](C)C(=O)N1CCC[C@H]1C(=O)N1CCC[C@H]1C(=O)N1CCC[C@H]1C(=O)N[C@@H](CO)C(N)=O [Example 11]
EC50 (hGCGR; [1]): > 9950 nM | EC50 (hGCGR; [2]): > 9950 nM | EC50 (hGIPR; [3]): 1.22 nM | Emax (hGIPR; [4]): 90 ± 2.71% | Emax (hGIPR; HEK293, percent of maximal response to GIP(1-42)NH2, 37° C., 0.1% bovine casein, arithmetic mean, read-out: hGIPR Emax, % ± SEM): 97.7 ± 2.82% | EC50 (hGIPR; cAMP, incubated at 37° C., 0.1% bovine casein (no human serum albumin), read-out: hGIPR EC50, nM (SEM, n)): 0.0135 nM | EC50 (hGLP-1R; [5]): 34.5 nM

CC[C@H](C)[C@H](NC(=O)[C@H](CC(C)C)NC(=O)[C@](C)(Cc1ccc(O)cc1)NC(=O)[C@H](CCCCNC(=O)COCCOCCNC(=O)COCCOCCNC(=O)CC[C@H](NC(=O)CCCCCCCCCCCCC(=O)O)C(=O)O)NC(=O)[C@@H](NC(=O)[C@H](Cc1ccccc1)NC(=O)[C@H](CCC(=O)O)NC(=O)C(C)(C)NC(=O)[C@H](CCC(N)=O)NC(=O)[C@H](C)NC(=O)[C@H](CCCCNC(=O)COCCOCCNC(=O)COCCOCCNC(=O)CC[C@H](NC(=O)CCCCCCCCCCCCC(=O)O)C(=O)O)NC(=O)[C@H](CCCN)NC(=O)[C@H](CC(=O)O)NC(=O)[C@H](CC(C)C)NC(=O)[C@](C)(CC(C)C)NC(=O)[C@@H](NC(=O)[C@H](CO)NC(=O)[C@H](Cc1ccncc1)NC(=O)[C@H](CC(=O)O)NC(=O)[C@H](CO)NC(=O)[C@@H](NC(=O)[C@](C)(Cc1ccccc1F)NC(=O)[C@@H](NC(=O)CNC(=O)[C@H](CCC(=O)O)NC(=O)C(C)(C)NC(=O)[C@@H](N)Cc1ccc(O)cc1)[C@@H](C)O)[C@@H](C)O)[C@@H](C)CC)[C@@H](C)CC)C(=O)N[C@@H](CCC(=O)O)C(=O)NCC(=O)NCC(=O)N1CCC[C@H]1C(=O)N[C@@H](CO)C(=O)N[C@@H](CO)C(=O)NCC(=O)N[C@@H](C)C(=O)N1CCC[C@H]1C(=O)N1CCC[C@H]1C(=O)N1CCC[C@H]1C(=O)N[C@@H](CO)C(N)=O [Example 16]
EC50 (hGCGR; hGCGR EC50, nM (SEM, n), 0.1% bovine casein and 1.0% human serum albumin, 37° C.): > 9950 nM | EC50 (hGCGR; hGCGR EC50, nM (SEM, n), cAMP, incubated at 37° C., 0.1% bovine casein (no human serum albumin)): > 9950 nM | Emax (hGIPR; HEK293, read-out: hGIPR Emax, % ± SEM, 0.1% bovine casein and 1.0% human serum albumin, 37° C., percent of maximal response to GIP(1-42)NH2): 91.5 ± 1.01% | EC50 (hGIPR; hGIPR EC50, nM (SEM, n), 0.1% bovine casein and 1.0% human serum albumin, 37° C.): 0.625 nM | EC50 (hGIPR; hGIPR EC50, nM (SEM, n), cAMP, incubated at 37° C., 0.1% bovine casein (no human serum albumin)): 0.0113 nM | Emax (hGLP-1R; HEK293, read-out: hGLP-1R Emax, % ± SEM, 0.1% bovine casein and 1.0% human serum albumin, 37° C., percent of maximal response to GLP-1(7-36)NH2): 98.3 ± 0.735% | EC50 (hGLP-1R; hGLP-1R EC50, nM (SEM, n), 0.1% bovine casein and 1.0% human serum albumin, 37° C.): 9.06 nM | EC50 (hGLP-1R; hGLP-1R EC50, nM (SEM, n), cAMP, incubated at 37° C., 0.1% bovine casein (no human serum albumin)): 0.245 nM

CCCCCCCCCCCCCCCC(=O)N[C@@H](CCC(=O)NCCOCCOCC(=O)NCCOCCOCC(=O)NCCOCCOCC(=O)NCCCC[C@H](NC(=O)CNC(=O)CNC(=O)[C@H](CCC(=O)O)NC(=O)[C@@H](NC(=O)[C@H](CC(C)C)NC(=O)[C@](C)(Cc1ccc(O)cc1)NC(=O)[C@@H](CCC(=O)O)NC(=O)[C@@H](NC(=O)[C@H](Cc1ccccc1)NC(=O)[C@H](CCC(=O)O)NC(=O)C(C)(C)NC(=O)[C@H](CCC(N)=O)NC(=O)[C@H](C)NC(=O)[C@H](CCCCNC(=O)COCCOCCNC(=O)COCCOCCNC(=O)COCCOCCNC(=O)CC[C@H](NC(=O)CCCCCCCCCCCCCCC)C(=O)O)NC(=O)[C@H](CCCN)NC(=O)[C@H](CC(=O)O)NC(=O)[C@H](CC(C)C)NC(=O)[C@](C)(CC(C)C)NC(=O)[C@@H](NC(=O)[C@H](CO)NC(=O)[C@H](Cc1ccncc1)NC(=O)[C@H](CC(=O)O)NC(=O)[C@H](CO)NC(=O)[C@@H](NC(=O)[C@](C)(Cc1ccccc1F)NC(=O)[C@@H](NC(=O)CNC(=O)[C@H](CCC(=O)O)NC(=O)C(C)(C)NC(=O)[C@@H](N)Cc1ccc(O)cc1)[C@@H](C)O)[C@@H](C)O)[C@@H](C)CC)[C@@H](C)CC)[C@@H](C)CC)C(=O)N[C@@H](CO)C(=O)N[C@@H](CO)C(=O)NCC(=O)N[C@@H](C)C(=O)N1CCC[C@H]1C(=O)N1CCC[C@H]1C(=O)N1CCC[C@H]1C(=O)N[C@@H](CO)C(N)=O)C(=O)O [Example 31]
EC50 (hGCGR; [1]): > 9950 nM | EC50 (hGCGR; [2]): > 9950 nM | EC50 (hGIPR; [3]): 0.147 nM | Emax (hGIPR; [4]): 88.9% | EC50 (hGLP-1R; [5]): 0.545 nM | Emax (hGLP-1R; HEK293, 0.1% bovine casein and 1.0% human serum albumin, 37° C., percent of maximal response to GLP-1(7-36)NH2, read-out: hGLP-1R Emax, % ± SEM): 109 ± 7.91% | Emax (hGLP-1R; [6]): 91.3 ± 16.1%

CCCCCCCCCCCCCCCC(=O)N[C@@H](CCC(=O)NCCOCCOCC(=O)NCCOCCOCC(=O)NCCCC[C@H](NC(=O)[C@H](CCCN)NC(=O)[C@H](CC(=O)O)NC(=O)[C@H](CC(C)C)NC(=O)[C@](C)(CC(C)C)NC(=O)[C@@H](NC(=O)[C@H](CO)NC(=O)[C@H](Cc1ccncc1)NC(=O)[C@H](CC(=O)O)NC(=O)[C@H](CO)NC(=O)[C@@H](NC(=O)[C@](C)(Cc1ccccc1F)NC(=O)[C@@H](NC(=O)CNC(=O)[C@H](CCC(=O)O)NC(=O)C(C)(C)NC(=O)[C@@H](N)Cc1ccc(O)cc1)[C@@H](C)O)[C@@H](C)O)[C@@H](C)CC)C(=O)N[C@@H](C)C(=O)N[C@@H](CCC(N)=O)C(=O)NC(C)(C)C(=O)N[C@@H](CCC(=O)O)C(=O)N[C@@H](Cc1ccccc1)C(=O)N[C@H](C(=O)N[C@H](CCC(=O)O)C(=O)N[C@@H](CCCCNC(=O)COCCOCCNC(=O)COCCOCCNC(=O)CC[C@H](NC(=O)CCCCCCCCCCCCCCC)C(=O)O)C(=O)N[C@@H](CC(C)C)C(=O)N[C@H](C(=O)N[C@@H](CCC(=O)O)C(=O)NCC(=O)NCC(=O)N1CCC[C@H]1C(=O)N[C@@H](CO)C(=O)N[C@@H](CO)C(=O)NCC(=O)N[C@@H](C)C(=O)N1CCC[C@H]1C(=O)N1CCC[C@H]1C(=O)N1CCC[C@H]1C(=O)N[C@@H](CO)C(N)=O)[C@@H](C)CC)[C@@H](C)CC)C(=O)O [Example 32]
EC50 (hGCGR; [1]): > 9950 nM | EC50 (hGCGR; [2]): > 9950 nM | Emax (hGIPR; [4]): 98.2% | EC50 (hGLP-1R; [5]): 1.73 nM | Emax (hGLP-1R; [6]): 119% | EC50 (hGLP-1R; cAMP, incubated at 37° C., 0.1% bovine casein (no human serum albumin), read-out: hGLP-1R EC50, nM (SEM, n)): 0.0063 nM
